Where two headings read alike, the source gives them in different places.

The values below come from US20070213291A1, “Therapeutically useful synthetic oligonucleotides” (priority 1999, published 2007).

The subject of data set [1] is MCF-7 human breast cancer cells. Kind of data set: MCF-7 human breast tumor xenografts in female nude BALB/c mice. The following applies: after 4 weeks of treatment, compared with other groups (group 1 saline). It counts as in vivo. Here is the method: MCF-7 human breast cancer cells are implanted subcutaneously as xenografts, in female nude BALB/c mice. The mice are divided into 6 groups of 10 mice. […] After 4 weeks of treatment, the mice are sacrificed and tumor mass is determined.
On the technique in general: A xenograft is tissue or cells of one species grown in another, often human tumour cells in immunodeficient mice.

For data set [2] the test system is unchanged. Kind of data set: Inhibition of MCF-7 cell proliferation (MTT). It is filed as cell-based. The following applies: for inhibition at 1 µg/mL: Homo sapiens, MCF7. An outline of the steps: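 Cells at 2.5×10^5 cells/ml (GT 3- and 6-base series at 5×10^5 cells/ml) treated with 100 μg/ml of 2-45-base oligonucleotide sequences versus untreated control for 48 h at 37 °C, 5% CO2. Proliferation read by MTT reduction at 570 nm.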

Data set [3] has as its system Jurkat human leukemia T cells. Kind of data set: Inhibition of Jurkat human leukemia T cell proliferation (MTT reduction). It is filed as cell-based. The following applies: for % INHIBITION of Jurkat human leukemia T cell proliferation: 100 μg/ml sequence, 48 h, 2.5×10^5 cells/ml. An outline of the steps:
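Read-out is MTT absorbance at 570 nm after 48 h. Sequences of 2 to 45 bases (A, C, G, T) tested at 100 μg/ml against untreated control, with 2.5×10^5 Jurkat cells/ml held at 37° C under 5% CO2.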

Another data set deals with chimpanzee PBMCs. Kind of data set: Cytokine production by chimpanzee PBMC (ELISA). It counts as cell-based. Particulars: PBMC of 4 healthy chimpanzees, 100 μg/ml, 48 h. An outline of the steps:
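PBMCs from 4 healthy chimpanzees (1×10^6 cells) were incubated 48 h at 37 °C, 5% CO2 with 100 μg/ml of each 6-base sequence. Supernatant IL-10, IL-12 (p70 plus free p40) and TNF-alpha were measured by ELISA. Values are fold increase over untreated control cells.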

The test system of data set [4] is THP-1 human acute monocytic leukemia cells. Kind of data set: Cytokine production by THP-1 cells (ELISA). It is filed as cell-based. Particulars: THP-1, 1×10^6 cells, 100 μg/ml, 48 h; for ↑ IL-12 (fold increase treated vs control cells): p70 complex and free p40. Put shortly: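 Read-out is fold increase in supernatant cytokine versus control cells, measured by ELISA (IL-12 ELISA counts p70 complex plus free p40). Unless noted, sequences were tested at 100 μg/ml on 1×10^6 cells, incubated 48 h, 37° C, 5% CO2.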

Data set [5] concerns Jurkat human leukemia T cells. The data set is described as follows: Apoptosis by phosphatidylserine/annexin V-FITC flow cytometry. It counts as cell-based. Particulars: 50 μM sequence. Put shortly:
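Jurkat cells were exposed to 3–7-base oligonucleotides (GT, ACGT, AG, GG, AGT, CGT sequences) at 50 μM. Separately, 6-base GT and complementary AC sequences, alone or hybridized 1:1 (10 min, 65 °C), were applied for 24 h. Phosphatidylserine exposure was quantified by flow cytometry with FITC-annexin V.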

The next data set relates to rhesus monkey PBMCs. The data set is described as follows: Cytokine production by rhesus monkey PBMC (ELISA). It counts as cell-based. Particulars: PBMC of 4 healthy rhesus monkeys, 100 μg/ml, 48 h. Put shortly: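 Peripheral blood mononuclear cells taken from 4 healthy rhesus monkeys were cultured at 1×10^6 cells with 100 μg/ml of each test sequence for 48 h at 37° C. under 5% CO2. Cytokine levels in 100 μl of supernatant were quantified in pg/ml by commercial ELISA and reported as fold increase over untreated control cells.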
In general terms: In an ELISA, binding on a coated surface is turned into a signal by an enzyme label.

Data set [6] relates to EL-4 murine T lymphoma cells. Kind of data set: EL-4 murine T lymphoma in C57/BL6 mice. It is filed as in vivo. The following applies: after 4 weeks of treatment, compared with group 1 (saline). As for the experimental part: EL-4 murine T lymphoma cells are implanted into C57/BL6 mice. The mice are divided into 6 groups of 10 mice. On day 0, group 1 mice receive saline, group 2 mice receive 3 base GT SEQ ID NO:8, group 3 mice receive 6 base SEQ ID NO:25, group 4 mice receive 6 base AG SEQ ID NO:45, group 5 mice receive 18 base GT SEQ ID NO: 18 and group 6 mice receive 27 base GT SEQ ID NO:1. After 4 weeks of treatment, the mice are sacrificed and tumor mass is determined.

The test system of data set [7] is human peripheral blood mononuclear cells. The data set is described as follows: Cytokine production by human PBMC (ELISA). It is filed as cell-based. Particulars: PBMC of 7 healthy humans, 100 μg/ml, 48 h. Put shortly: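 PBMC from 7 healthy donors, Ficoll-isolated; 1×10^6 cells incubated with 100 μg/ml oligonucleotide sequence for 48 h at 37 °C, 5% CO2. IL-1beta, IL-6, IL-10, IL-12 (p70 plus free p40) and TNF-alpha measured by ELISA in supernatant, expressed as fold increase over control cells.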

The test system of data set [8] is LNCaP human prostate cancer cells. The data set is described as follows: LNCaP human prostate cancer xenografts in male nude nu/nu mice. The following applies: after 4 weeks of treatment, compared with other groups (group 1 saline, group 5 BCG A-3). It counts as in vivo. Here is the method: LNCaP human prostate cancer cells are implanted subcutaneously, as xenografts, in male nude nu/nu mice. The mice are divided into 5 groups of 10 mice. On day 0, group 1 mice receive saline, group 2 mice receive 3 base SEQ ID NO:8, group 3 mice receive 6 base GT SEQ ID NO:25, group 4 mice receive 6 base AG SEQ ID NO:45 and group 5 mice receive 45 base BCG A-3 SEQ ID NO:69. After 4 weeks of treatment, the mice are sacrificed and timor mass is determined.

The test system of data set [9] is Jurkat human leukemia T cells. The data set is described as follows: NuMA release into supernatant (ELISA). It counts as cell-based. The following applies: Jurkat, 50 μM sequence. An outline of the steps:
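Jurkat T cells (1×10^6/ml) exposed to GT-containing oligonucleotide sequences, at 50 μM in some experiments, for 24 h in some experiments. NuMA released into the supernatant quantified by commercial ELISA.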

The subject of data set [10] is PC-3 human prostate cancer cells. Kind of data set: Inhibition of PC-3 cell proliferation (MTT). Particulars: 100 μg/ml, 48 h, 5×10^5 cells/ml. It counts as cell-based. Here is the method:
Cells were seeded in 6 (1 ml/well), 24 (0.5 ml/well) or 96 (0.1 ml/well) well flat-bottom microplates and were maintained at 37° C. in a 5% CO2 atmosphere. Unless stated otherwise, 2.5×10^5 cells/ml were incubated with 0 μg/ml (control) and 100 μg/ml (treated) of 2 to 45 base sequences containing A, C, G and T for 48 h.
Cell proliferation was measured using dimethylthiazol-diphenyl-tetrazolium (MTT) reduction (Mosman et al. J. Immunol. Methods 65:55, 1983). MTT was measured at a wavelength of 570 nm using a multiplate spectrophotometer reader (ELX800, Bio-TEK Instruments Inc., Winooski, Vt.).
PC-3 prostate cancer cells are a p53 mutated, androgen-independent human solid tumor model. PC-3 cells (5×10^5 cells/ml) were incubated with 3 and 6 base GT sequences (Table 8).

Data set [11] deals with Jurkat human leukemia T cells. The data set is described as follows: Cell cycle stage in Jurkat cells (propidium iodide flow cytometry). It is filed as cell-based. Particulars: Jurkat, 24 h, 100 μg/ml. An outline of the steps:
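Phase distribution (G0/G1, early, mid and late S, G2/M) came from flow cytometry with doublet discrimination on propidium iodide-stained nuclei. Jurkat cells were given 24 h exposure to 2–45-base oligonucleotides, or at 1×10^6 cells/ml to single 6-base GT or AC strands heated 10 min at 65 °C or 1:1 hybridized duplex.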

[12] abbreviates: 5-fluorouracil 0.1 μg/ml, alone or with sequence at 1.0 μg/ml.

For `O=c1[nH]cc(F)c(=O)[nH]1` [5-Fluorouracil, reference compound], the tumor mass result in data set [1] is recorded as “less tumor mass than group 1 mice”. The “% INHIBITION of MCF-7 proliferation, 5-Fluorouracil 0.1 μg/ml” value in data set [2] (setting [12]) is 13%. Besides, the inhibition at 1 µg/mL came to 28% in data set [2] (5-fluorouracil 1.0 μg/ml, alone or with sequence at 1.0 μg/ml, read-out: % INHIBITION of MCF-7 proliferation, 5-Fluorouracil 1.0 μg/ml) and 14% in [3] (Homo sapiens, Jurkat, 5-fluorouracil 1.0 μg/ml, alone or with sequence at 1.0 μg/ml). Further, the “% INHIBITION of Jurkat proliferation, 5-Fluorouracil 0.1 μg/ml” value in data set [3] (setting [12]) was determined as 3%. In addition, the “% INHIBITION of Jurkat proliferation, 5-Fluorouracil 10.0 μg/ml” value in data set [3] (5-fluorouracil 10.0 μg/ml, alone or with sequence at 1.0 μg/ml) turned out to be 38%.

Consider `CC/C(=C(\c1ccccc1)c1ccc(OCCN(C)C)cc1)c1ccccc1` [Tamoxifen, reference compound], for which the tumor mass entry in data set [1] is listed as “less tumor mass than group 1 mice”. Moreover, the inhibition at 1 µg/mL in [2] (tamoxifen 1.0 μg/ml, alone or with sequence at 1.0 μg/ml, read-out: % INHIBITION of MCF-7 proliferation, Tamoxifen 1.0 μg/ml) amounted to 18%. Also, the “% INHIBITION of MCF-7 proliferation, Tamoxifen 0.1 μg/ml” value in data set [2] (tamoxifen 0.1 μg/ml, alone or with sequence at 1.0 μg/ml) was 10%. Also, in data set [2] (tamoxifen 10.0 μg/ml, alone or with sequence at 1.0 μg/ml), the “% INHIBITION of MCF-7 proliferation, Tamoxifen 10.0 μg/ml” value was 15%.

As to GGGAGG (unmodified DNA) [SEQ ID NO:45], in the data set on chimpanzee PBMCs, the “IL-10 fold increase: mean +/− SD” value is 9.9 +/− 9.2 fold increase, the “IL-12 fold increase: mean +/− SD” value is on record as 15.9 +/− 10.7 fold increase and the “TNF-alpha fold increase: mean +/− SD” value is 14.5 +/− 6.9 fold increase. Besides, in data set [4], the “↑ IL-6 (fold increase treated vs control cells)” value was found to be 23.2x and the “↑ IL-12 (fold increase treated vs control cells)” value is given as −1.6x. Moreover, in data set [5], the “% of cells in apoptosis (positive for PS/A-V staining)” value turned out to be 27%. For the same molecule, in the data set on rhesus monkey PBMCs, the “IL-10 fold increase: mean +/− SD” value was 1.1 +/− 0.1 fold increase, the “IL-12 fold increase: mean +/− SD” value is recorded as 11.9 +/− 4.5 fold increase and the “TNF-alpha fold increase: mean +/− SD” value is on record as 16.7 +/− 4.6 fold increase. Besides, the tumor mass entry in [6] was “less tumor mass than group 1 mice”. Further, in [7], the “IL-1 beta fold increase: mean +/− SD” value is given as 13.6 +/− 14.9 fold increase, the “IL-6 fold increase: mean +/− SD” value is recorded as 24.7 +/− 16.5 fold increase, the “IL-10 fold increase: mean +/− SD” value was 6.0 +/− 5.5 fold increase and the “IL-12 fold increase: mean +/− SD” value is reported as 20.7 +/− 10.3 fold increase. The tumor mass result in [8] was “less tumor mass than groups 1 and 5 mice”. In addition, the “% NuMA released (treated vs untreated cells)” value in data set [9] was found to be 74%. Moreover, in data set [3], the “% INHIBITION of Jurkat human leukemia T cell proliferation” value was determined as 28%.

For “GTG (chemistry not given here) [SEQ ID NO:8]”, the “% of cells in apoptosis (positive for PS/A-V staining)” value in data set [5] came to 21%. For the same molecule, the tumor mass entry in data set [6] is “less tumor mass than group 1 mice”; in [8], “less tumor mass than groups 1 and 5 mice”. Besides, the “% NuMA released (treated vs untreated cells)” value in data set [9] is 97%. Further, the “% INHIBITION of PC-3 human prostate cancer cell proliferation” value in [10] was found to be 13%. In data set [2] (100 μg/ml, 48 h, 5×10^5 cells/ml), the “% INHIBITION of MCF-7 human breast cancer cell proliferation” value was found to be 18%. Moreover, the “% INHIBITION of Jurkat human leukemia T cell proliferation” value in [3] was 46%.

With “TCCATCGCCAAGGAGATCGAGCTGGAGGATCCGTACGAGAAGATC (unmodified DNA) [BCG A-3, reference compound]”, in data set [4], the “↑ IL-6 (fold increase treated vs control cells)” value is recorded as 2.5x and the “↑ IL-12 (fold increase treated vs control cells)” value turned out to be 1.7x. For the same molecule, the tumor mass entry in [8] is reported as “less tumor mass than group 1 mice”. Besides, in data set [11], the “% of cells in phase: G0/G1” value was found to be 32.3%, the “% of cells in phase: G2/M” value was determined as 21.4%, the “% of cells in phase: SE” value worked out at 20.2% and the “% of cells in phase: SL” value amounted to 12.0%. In data set [11], the “% of cells in phase: SM” value is reported as 14.1% and the “Arrest (cell cycle)” value is recorded as “None”. In addition, the “% INHIBITION of Jurkat human leukemia T cell proliferation” value in data set [3] amounted to 24%.
